The results in this text go back to patent publication US10400274B2, “Fluorogenic probes and their use in quantitative detection of target RNA sequences” (JAN BIOTECH, INC., priority 2016, dated 2019).

The test system of one series is HIV RNA of ACH-2 cells. As to the kind of experiment: HIV qLDR on PMA-activated ACH-2 cells in A3.01 cells (latent vs. active). Type of series: cell-based. The settings on record: 10 ACH-2 cells in 10^6 A3.01 cells; PMA 1 μM for 0, 3, 8, 24 hr; FIG. 9. Here is the method: For cell line testing (FIG. 9), ACH-2 and A3.01 cells were grown in T-75 flasks and plated at 1 mL per well in a 24-well culture plate in RPMI medium. After the wells reached 60% confluency, cells were activated for 0, 3, 8, and 24 hr with PMA (phorbal 12-myristate 13-acetate) at 1 μM final concentration per well. The experiment was performed such that each activation time endpoint represented the same total growth time. The activated ACH-2 cells were harvested from each well and counted. After preservation and shipping in 90% FBS/10% DMSO at −80° C., the cell suspensions were recounted, diluted and added at 10 cells into 10^6 A3.01 cells activated for the matching time period. HIV qLDR, using probes SEQ ID NO: 9/SEQ ID NO: 10 for 2 kb tat-rev transcripts, SEQ ID NO: 1/SEQ ID NO: 2 for 9 kb transcripts, and SEQ ID NO: 1/SEQ ID NO: 2 and SEQ ID NO: 5/SEQ ID NO: 6 for 4 kb transcripts, was performed on the cells and fluorometric readings in a 96-well plate format were normalized to background. […] Thus, the ratio of cell-based tat-rev to 4 kb/9 kb HIV RNA levels may be a useful measure of latent to active cell number.

Series [1] deals with synthetic HIV RNA targets. The experiment in a line: qLDR probe set testing against synthetic HIV RNA targets. The settings on record: initial testing with synthetic HIV RNA targets. Here is the method: The qLDR reaction contained optimized probe concentrations at 10-100 pM and a total reaction volume of 50 μL. The qLDR reaction for each probe set was optimized against the commensurate synthetic HIV RNA targets using fluorescence microscopy and fluorescence emission in a 96-well format in a desktop fluorometer, with readings normalized to background.

The next series has as its system HIV pol/protease region. As to the kind of experiment: HIV qLDR compared with HIV RT-qPCR on human peripheral blood samples. It counts as cell-based. The note with it: CD4+ T cells for qLDR, blood plasma for RT-qPCR; FIG. 11. As to the method:
For human sample testing comparison with HIV RT-qPCR (FIG. 11), blood plasma was used for RT-qPCR and CD4+ T cells were used for qLDR. RT-qPCR was performed using primers and probe to the HIV gag-pol region, as described in Livak et al., 1995, for best comparison with HIV qLDR with probes SEQ ID NO: 1/SEQ ID NO: 2 to the HIV pol/protease region. HIV RNA was isolated from blood plasma samples prior to RT-qPCR. An RT-qPCR standard was prepared by in vitro transcription of a synthetic HIV T7 plasmid, and RNA copy number was determined using a standard curve generated with the RT-qPCR standard.
(In general: Quantitative PCR measures a nucleic acid by following its amplification.)

The next series deals with cellular HIV RNA. As to the kind of experiment: HIV qLDR on CD4-enriched PBMC lysates from HIV- and HIV+ participants. It counts as cell-based, human. The note with it: FIG. 10a-b; for detection of cellular HIV RNA in HIV+ HAART (latent) samples / detection of cellular HIV RNA in HIV- samples: CD4-enriched PBMC lysates, 20 mL blood; for detection between latent and HIV+ non-HAART (active) samples: including viremic participants and elite controllers. Here is the method: For human sample testing (FIG. 10a-b) by HIV qLDR, CD4-enriched PBMC from HIV− and HIV+ participants were tested by the HIV qLDR probes SEQ ID NO: 9/SEQ ID NO: 10 for 2 kb tat-rev transcripts and SEQ ID NO: 5/SEQ ID NO: 6 for 9 kb and 4 kb transcripts. Lysates were tested from five individuals/class. Tests were performed in triplicate with 20 mL blood.

Consider “SEQ ID NO: 1/SEQ ID NO: 2: fluorogenic probe pair SEQ ID NO: 1 (Ald-1) and 2 (Ind), HIV-1 pol/protease, detects full length 9 kb RNA (chain 1 CCTGTATCTAATAGAGC; chain 2 TCTAATACTGTATCATCT; fluorogenic labels; Latent HIV-1 qLDR Oligonucleotide Probe; (1)..(1) Fluorogenic probe moiety attachment position on probe sequence; (18)..(18) Fluorogenic probe moiety attachment position on probe sequence)”, for which the “change of fluorescence level through activation time course” value (shortened to “change”) with HIV RNA of ACH-2 cells was “marked increase”. In addition, the detection efficiency result in series [1] was “comparable detection efficiency”. Also, the “correlation of HIV qLDR results with HIV RT-PCR viremia results” value in the series with HIV pol/protease region is reported as “closely correlated”.

Take “SEQ ID NO: 5/SEQ ID NO: 6: fluorogenic probe pair SEQ ID NO: 5 (Ald-2) and 6 (Ind), HIV-1 gp160/41, detects 4 kb spliced and 9 kb RNA (chain 1 ATAGTGCTTCCTGCT; chain 2 GTCATTGAGGCTGCG; fluorogenic labels; Latent HIV-1 qLDR Oligonucleotide Probe; (1)..(1) Fluorogenic probe moiety attachment position on probe sequence; (15)..(15) Fluorogenic probe moiety attachment position on probe sequence)”: the “change” value with HIV RNA of ACH-2 cells is on record as “marked increase”. Moreover, the detection efficiency result in series [1] was “comparable detection efficiency”. In the series with cellular HIV RNA, the “detection of cellular HIV RNA in HIV+ HAART (latent) samples” value is recorded as “successfully detected”; the “detection of cellular HIV RNA in HIV- samples” value is given as “not in HIV—samples”; the “detection between latent and HIV+ non-HAART (active) samples” value was “differential detection”.

As for “SEQ ID NO: 9/SEQ ID NO: 10: fluorogenic PNA probe pair SEQ ID NO: 9 (Ald-1) and 10 (Ind), tat-rev, detects spliced 2 kb HIV-1 RNA (chain 1 CTTTG; chain 2 TGGGT; PNA; fluorogenic labels; Latent HIV-1 qLDR Oligonucleotide Probe; (1)..(1) Fluorogenic probe moiety attachment position on probe sequence; (1)..(5) Peptide nucleic acid 5′ Ald-CTTTG-DMLys-DMLys- CONH2; (1)..(5) Peptide nucleic acid 3′ Ind-TGGGT-DMLys-DMLys- CONH2; (5)..(5) Fluorogenic probe moiety attachment position on probe sequence)”, the “change” value in the series on HIV RNA of ACH-2 cells is reported as “relatively little increase”. The detection efficiency entry in series [1] was “comparable detection efficiency”. Besides, in the series with cellular HIV RNA, the “detection of cellular HIV RNA in HIV+ HAART (latent) samples” value is “successfully detected”; the “detection of cellular HIV RNA in HIV- samples” value is “not in HIV—samples”; the “detection between latent and HIV+ non-HAART (active) samples” value was “differential detection”.
